Columns and labels:
[1] = test system: enriched microglia primary cultures from apoE deficient mouse pups; assay: LPS-stimulated nitric oxide (nitrite) secretion by enriched microglia primary cultures; assay type: cell-based; conditions: peptide 0 μM to 1000 μM, LPS 100 ng/ml, after 48 hours
Description: Culture preparation and characterization: Mixed glial cell cultures were prepared from: (a) wildtype (C57B16; Jackson Laboratories) mouse pups; (b) ApoE deficient mutant mouse pups (ApoE-deficient mice), and (c) transgenic mouse pups expressing human ApoE3 but not murine ApoE (ApoE3 mice). See Xu et al., Neurobiol. Dis. 3:229 (1996) regarding the creation and characterization of the transgenic mice. Mixed glial cell cultures were prepared as has been described. See McMillian et al., Neurochem. 58:1308 (1992); Laskowitz et al., J. Neuroimmunol. 76:70 (1997). Briefly, brains were removed from 2-4 day old pups, cleaned of membranes and blood vessels, mechanically dispersed in Ca^+2-free media, and collected by centrifugation. Cells were then plated in DMEM/F12 (containing 10% fetal calf serum, 1% penicillin/streptomycin, Gibco #15070), one brain per 25 cm flask. […]
Nitrite Quantification The production of NO was assessed by measuring the accumulation of nitrite, which was quantified using a calorimetric reaction with Griess reagent (0.1% N-1-naphthylethylenediamine dihydrochloride, 1% sulfanilamide, and 2.5% H3PO4). Absorbance was measured at 570 nm by spectrophotometry. […]
Enriched microglia primary cultures were prepared from the brains of apoE deficient mouse pups as described in Example 1, above. […] Nitric oxide production was assessed as described in Example 1. […]

[2] = test system: primary hippocampal neurons; conditions: cited from earlier work

## LRKLRKRLL LRKLRKRLL (LRKLRKRLLLRKLRKRLL; fragment of ApoE containing LDL receptor binding site) [SEQ ID NO:3]
[1]
  nitric oxide secretion by activated microglia: dose-dependent decrease in nitric oxide secretion
[2]
  neuronal cell death: induced neuronal cell death
